Legend:
[1] = tested on: IL-6 production by peripheral blood mononuclear cells; assay: IL-6 production by PBMCs (ELISA); type: cell-based, humans
Experimental: Peripheral blood mononuclear cells (hereinafter, “PBMCs”) were isolated from the blood of 5 healthy humans by Ficoll-Hypaque (Amersham Pharmacia Biotech, Baie d'Urfee, Quebec, Canada) density gradient centrifugation of whole blood. Stimulation of IL-6 and IL-12 production by the immune system cells was determined using the appropriate commercial ELISA (BioSource, Camarillo, CA, USA). Results are expressed as the “fold” (x) increases in cytokine production by treated cells compared to control cells.
PBMCs were incubated with 1 mg/ml of 5.0-7.5 x 105 Da and production of IL-6 and IL-12 was determined (Table 9).
PBMCs, isolated from the blood of individual #1, were incubated with 0.008, 0.04, 0.2 and 1 mg/ml of 5.0-7.5 x 10^5 Da (Table 10)

[2] = tested on: PC-3 human prostate cancer cells; assay: MTT cell proliferation, PC-3; type: cell-based
Experimental: (§1) Cell proliferation was measured using dimethylthiazoldiphenyltetrazolium (MTT) reduction (Mosman et al. J. Immunol. Methods 65:55, 1983). Unless otherwise stated, 100 Al of 5 mg of MTT (Sigma-Aldrich, St. Louis, Mo., USA) dissolved in 1 ml of PBS was added into each well. After 4 h, medium was removed from each well, 1.0 ml of acid-isopropanol (0.04 N HCI in isopropanol) was added and reduced MTT was solubilized by mixing. Absorbency of the reaction product was measured at a wavelength of 570 nm using a multiplate spectrophotometer reader (Elx800 Model, Bio-TEK Instruments Inc., Winooski, Vt., USA).
(§2) Unless stated otherwise 1.0 x 10^5 cells/ml were seeded in 6-well flat-bottom tissue culture plates and were maintained for 48 h at 370 C in a 5% CO2 atmosphere.
(§3) PC-3, LNCAP and Du-145 human prostate cancer cells; MCF-7 human breast cancer cells; HT-1080 human fibrosarcoma cancer cells; B16F1 murine melanoma cells; and, UMUC-3, RT-4, HT-1376 and T-24 human bladder cancer cells were incubated with 0.8, 8.0 and 80 μg/ml of 5.0-7.5 x 10^5 Da HA (Table 2).
(§4) PC-3. LNCaP and Du-145 human prostate cancer cells were incubated with 8.0 jg/ml of 5.0-7.5 x 105 Da HA or of <1.5 x 10^4 Da HA (Table 3).
(§5) Unless stated otherwise 2.0 x 10^4 cells/ml were seeded in 24-well plates and were maintained for 48 h at 370 C in a 5% CO2 atmosphere. MTT was used at 50 μl per well.
(§6) T-24 human bladder cancer cells, PC-3 and Du-145 human prostate cancer cells, and MCF-7 human breast cancer cell were incubated with saline or with 80.0 jg/ml of 5.0-7.5 x 105 Da HA +1.0 μg/ml of M-DNA (Table 4).
(§7) CD44 expression and the inhibition of proliferation by 5.0-7.5 x 10^5 Da HA were measured using Jurkat T cell leukemia cells; MCF-7 human breast cancer cells; RT-4, T-24, HT-1376 and UMUC-3 human bladder cancer cells; and, PC-3, Du-145 and LNCaP prostate cancer cells (Table 8)

[3] = tested on: MCF-7 human breast cancer cells; assay: MTT cell proliferation, MCF-7; type: cell-based
Experimental: as §1, §2, §3, §5, §6
MTT was used at 50 µl per well.
Example 8 s HA potentiation of the anti-neoplastic effect ofchemotherapeutic drugs RT-4 human bladder cancer cells and MCF-7 human breast cancer cells were incubated as in Example 6 with 0.0, 0.008 or 0.08 pg/ml of 5.0-7.5 x 10^5 Da HA +0.1 jg/ml of CIS, +1.0 jg/ml of 5-FU or +10 jig/ml of 5-FU (Table 7).
as §7

[4] = tested on: Jurkat T cell leukemia cells; assay: MTT cell proliferation, Jurkat T; type: cell-based; details: HA 80 μg/ml
Experimental: as §1, §2, §7

[5] = tested on: HT-1376 human bladder cancer cells; assay: MTT cell proliferation, HT-1376; type: cell-based
Experimental: as §1, §2, §3, §5
HT-1376, RT-4 and T-24 human bladder cancer cells were incubated with 0.8 pg/ml of 5.0-7.5 x 10^5 Da HA +1.0 ug/ml of MCC (Table 5).
as §7

[6] = tested on: Du-145 human prostate cancer cells; assay: MTT cell proliferation, Du-145; type: cell-based
Experimental: as §1, §2, §3, §4, §5, §6, §7

[7] = tested on: B16F1 murine melanoma cells; assay: MTT cell proliferation, B16F1; type: cell-based; details: 48 h
Experimental: as §1, §2, §3

[8] = tested on: MCF-7 human breast cancer cells; assay: MTT cell proliferation, MCF-7; type: cell-based; details: MCF-7 (2.5 X 10^5 cells/ml)
[9] = HA 8.0 μg/ml, 48 h, listed as 0.5-7.5 × 10^5 Da HA
[10] = HA 80.0 μg/ml alone (+ saline), 24-well, Example 6

## Hyaluronic acid [5.0-7.5 × 10^5 Da HA]
[1]; PBMCs of individual 1, HA 1 mg/ml
  IL-6 production, fold increase vs control cells: 3.8x
[1]; PBMCs of individual 2, HA 1 mg/ml
  IL-6 production, fold increase vs control cells: 1.8x
[1]; PBMCs of individual 3, HA 1 mg/ml
  IL-6 production, fold increase vs control cells: 4.1x
[1]; PBMCs of individual 4, HA 1 mg/ml
  IL-6 production, fold increase vs control cells: 1.4x
[1]; PBMCs of individual 5, HA 1 mg/ml
  IL-6 production, fold increase vs control cells: 6.3x
[1]; PBMCs of individual #1, HA 0.008 mg/ml
  IL-6 production, fold increase vs control cells: 2.4x
[1]; PBMCs of individual #1, HA 0.040 mg/ml
  IL-6 production, fold increase vs control cells: 3.5x
[1]; PBMCs of individual #1, HA 0.200 mg/ml
  IL-6 production, fold increase vs control cells: 2.9x
[2]; HA 0.8 μg/ml, 48 h
  % INHIBITION of cell proliferation: 15%
[2]; [9]
  % INHIBITION of cell proliferation: 26%
[2]; [10]
  % INHIBITION of cell proliferation: 30%
[3]; HA 0.008 μg/ml alone (+ saline)
  % INHIBITION of cell proliferation: 12%
[3]; HA 0.08 μg/ml alone (+ saline)
  % INHIBITION of cell proliferation: 12%
[3]; HA 0.8 μg/ml, 48 h
  % INHIBITION of cell proliferation: 19%
[3]; HA 8.0 μg/ml, 48 h
  % INHIBITION of cell proliferation: 24%
[3]; [10]
  % INHIBITION of cell proliferation: 35%
[3]; HA 80.0 μg/ml, 48 h
  % INHIBITION of cell proliferation: 35%
[4]
  % inhibition of proliferation: 0%
[5]; HA 0.8 μg/ml, 48 h
  % INHIBITION of cell proliferation: 0%
[5]; HA 8.0 μg/ml, 48 h
  % INHIBITION of cell proliferation: 3%
[5]; HA 80.0 μg/ml, 48 h
  % INHIBITION of cell proliferation: 1%
[5]; HA at 0.8 μg/ml alone (+ saline), 24-well, Example 6
  % INHIBITION of cell proliferation: 3%
[6]; HA 0.8 μg/ml, 48 h
  % INHIBITION of cell proliferation: 6%
[6]; [9]
  % INHIBITION of cell proliferation: 15%
[6]; [10]
  % INHIBITION of cell proliferation: 38%
[6]; HA 80.0 μg/ml, 48 h
  % INHIBITION of cell proliferation: 38%
[7]; HA 0.8 μg/ml
  % INHIBITION of cell proliferation: 20%
[7]; HA 8.0 μg/ml
  % INHIBITION of cell proliferation: 20%
[7]; HA 80.0 μg/ml
  % INHIBITION of cell proliferation: 30%
[8]; HA 0.01 μg/ml alone
  % INHIBITION of cell proliferation: 6%
[8]; HA 0.1 μg/ml alone
  % INHIBITION of cell proliferation: 5%

From patent US20030176381A1, “Hyaluronic acid in the treatment of cancer” (priority 2002, published 2003)
